According to patent US20220370424A1 (Deciphera Pharmaceuticals, LLC, priority 2017, published 2022):
pIC50: −log10 of the molar value.

Assays:
[1] = tested on: PDGFRα D842V mutated Gastrointestinal Stromal Tumors (GIST); test: Phase 1 study DCC-2618-01-001: antitumor activity (RECIST 1.1) in GIST patients with PDGFRα D842V mutation; format: in vivo, human; conditions: GIST patient
Experimental: (§1) Preliminary antitumor activity was measured by CT scans according to RECIST 1.1 every other cycle (every 56 days). Pharmacodynamics effects were measured as a reduction in mutation allele frequency (MAF) in plasma cell-free (cf) DNA and analyzed with Guardant 360 v2.9 or v2.10 (Guardant Health, Redwood City, Calif.), a. 73-gene next generation sequencing panel.
All patients had to have progressive disease on standard of care treatment and would rapidly progress without treatment. Three patients with PDGFRα-mutated Gastrointestinal Stromal Tumors (GIST) were enrolled in the study. The PDGFRα D842V mutation was identified in each patient by tumor biopsy. Based on non-clinical data and the available pharmacokinetic data from study DCC-2618-01-001, dose levels of >50 mg BID (daily dose equivalent 100 mg) were sufficient to lead to tumor control i.e. growth arrest in these advanced sarcomas of PDGFRα D842V mutation-dependent tumors in patients suffering from GIST. Out of 3 evaluable patients, 2 were enrolled at or above target-effective dose levels (150 mg QD and 100 mg BID). […] The patient at 100 mg BID is now in Cycle 11 (>40 weeks) and continues to benefit from treatment. […] The 2 patients had 1 and 3 prior treatments with Tyrosine Kinase Inhibitors, respectively.

[2] = tested on: PDGFRα D842V mutation in plasma cell-free DNA; test: Phase 1 study: PDGFRα D842V mutation allele frequency in plasma cfDNA (Guardant 360); format: in vivo, human; conditions: GIST patient at 100 mg BID
Experimental: as §1
To date, cfDNA follow up data for PDGFRα D842V mutation allele frequency in plasma are available for the patient at 100 mg BID only. The PDGFRα D842V mutation was not detected by cfDNA at baseline, but at Cycle 3 Day 1 (8 weeks) post-treatment a frequency of 0.59% was detected.

[3] = tested on: PDGFRα amplified glioblastoma; test: Phase 1 study: antitumor activity (RANO) in glioblastoma patient with PDGFRα amplification; format: in vivo, human; conditions: GBM patient, 20 mg BID oral
Experimental: (§2) Preliminary antitumor activity was measured by CT scans according to RANO (Revised Assessment in Neuro-Oncology) criteria every other cycle followed by after every cycle (every 56 or 84 days). Pharmacodynamic effects […] were measured as a reduction in circulating tumor cells (CTC). Whole blood was enriched for CTCs in an OncoQuick tube. The CTC layer was incubated with an adenovirus that replicates and expresses GFP in cells with high levels of telomerase (Oncolys BioPharma Inc.). Cells were then incubated with fluorescently-labeled antibodies, fixed, and stained with DAPI. Cells positive for DAPI, GFP, PDGFRα and GFAP fluorescence were counted as circulating glioblastoma tumor cells using a BioTek Cytation 5 imager. Glial fibrillary acidic protein (GFAP) is unambiguously attributed to glial cells.
All patients had to have progressive disease on standard of care treatment and would rapidly progress without treatment. One patient with PDGFRα amplified glioblastoma (GBM; 6× amplified, 12 copies) was enrolled in the study at the 20 mg BID dose level. The patient had been treated initially with combined radio-chemotherapy followed by temozolomide alone and progressed after 3 months. The GBM patient is now in cycle 19 (>17 months on study) and continues to benefit from treatment. […] FIG. 1B provided an additional proof of the tumor reduction after cycle 9.

[4] = tested on: circulating glioblastoma tumor cells (PDGFRα+/GFAP+); test: Phase 1 study: circulating glioblastoma tumor cells (PDGFRα+/GFAP+ CTC) in whole blood; format: in vivo, human; conditions: GBM patient, 20 mg BID
Experimental: as §2
The relevance of PDGFRα amplification has been assessed in pediatric and adult high-grade astrocytomas (HGA) including glioblastomas. […] Dunn et al., provide additional evidence that PDGFRα amplification is a driver genomic alteration for GBM (Dunn et al., Genes Dev. (2012) 26(8):756-84). […] The frequency dropped in cycles 13 (52 weeks) and 17 (68 weeks) to 1.11 and 0.58 CTCs/mL, respectively.

[5] = Phase 1 study: plasma pharmacokinetics, Cycle 1 Day 15, after oral Compound A; format: in vivo, human; conditions: patients, Cycle 1 Day 15 steady state; for Cmax: human, po, 150 mg, Compound A Cmax (mean)
Excerpt: Phoenix WinNonlin version 6.3 was used to analyze plasma concentration versus time data for calculation of standard noncompartmental PK parameters. All PK calculations were completed using the nominal sample collection times.

[6] = target: T1, recombinant wild type PDGFRα (Homo sapiens, UniProt P16234); test: Biochemical assay for PDGFRα (coupled pyruvate kinase/lactate dehydrogenase); conditions: 0.5 mM ATP, 4.8 nM PDGFRA; read-out: IC50, inhibition of recombinant wild type PDGFRα enzyme activity
T1 construct: purchased DeCode Biostructures, Bainbridge Island, Wash
Experimental: Inhibition of PDGFRA was measured after adding serial diluted test compound (final assay concentration of 1% DMSO). A decrease in absorption at 340 nm was monitored continuously for 6 hours at 30° C. on a multi-mode microplate reader (BioTek, Winooski, Vt.). The reaction rate was calculated using the 1-2 h time frame. The reaction rate at each concentration of compound was converted to percent inhibition using controls (i.e. reaction with no test compound and reaction with a known inhibitor) and IC50 values were calculated by fitting a four-parameter sigmoidal curve to the data using Prism (GraphPad, San Diego, Calif.).

[7] = target: T2, recombinant D842V mutant PDGFRα (Homo sapiens, UniProt P16234, D842V); test: Biochemical assay for PDGFRα D842V (coupled pyruvate kinase/lactate dehydrogenase); conditions: 0.5 mM ATP, 3 nM PDGFRA D842V; read-out: IC50, inhibition of recombinant D842V mutant PDGFRα enzyme activity
T2 construct: His (N); purchased Invitrogen, Carlsbad, Calif
Experimental: (§3) The reaction rate was calculated using the 2-3 h time frame.

[8] = target: T3, recombinant wild type PDGFRβ (Homo sapiens, UniProt P09619); test: Biochemical assay for PDGFRB (coupled pyruvate kinase/lactate dehydrogenase); conditions: 0.5 mM ATP, 9 nM PDGFRB; read-out: IC50, inhibition of recombinant wild type PDGFRβ enzyme activity
T3 construct: purchased DeCode Biostructures, Bainbridge Island, Wash
Experimental: as §3

[9] = tested on: D842V mutant PDGFRα BaF3 cells; test: BaF3 PDGFRα D842V cell proliferation assay (resazurin); format: cell-based; conditions: Mus musculus, 67 h + 5 h resazurin, read-out: IC50, inhibition of proliferation of D842V mutant PDGFRα BaF3 cells
Experimental: (§4) BaF3 cells were transfected with a construct encoding D842V PDGFRα and selected for IL-3 independence.
(§5) A serial dilution of test compound was dispensed into a 96-well black clear bottom plate (Corning, Corning, N.Y.). Ten thousand cells were added per well in 200 μL complete growth medium. […] Plates were read on a Synergy2 reader (Biotek, Winooski, Vt.) using an excitation of 540 nm and an emission of 600 nm. Data was analyzed using Prism software (GraphPad, San Diego, Calif.) to calculate IC50 values.

[10] = target: T4, D842V mutant PDGFRα expressed in BaF3 cells (Homo sapiens, UniProt P16234, D842V); test: BaF3 PDGFRα D842V Western blot, phospho-PDGFRα (Tyr754); format: cell-based; conditions: 4 hours, read-out: IC50, inhibition of phosphorylation of D842V mutant PDGFRα expressed in BaF3 cells
T4 construct: expressed in transfected cells; host or cells: BaF3 cells (IL-3 independent selection)
Excerpt: as §4
(§6) Cells were washed with PBS, then lysed. Cell lysates were separated by SDS-PAGE and transferred to PVDF. Phospho-PDGFRα (Tyr754) was detected using an antibody from Cell Signaling Technology (Beverly, Mass.), ECL Plus detection reagent (GE Healthcare, Piscataway, N.J.) and a Molecular Devices Storm 840 phosphorimager in fluorescence mode. Blots were stripped and probed for total PDGFRα using an antibody from Cell Signaling Technology (Beverly, Mass.). IC50 values were calculated using Prism software (GraphPad, San Diego, Calif.).

[11] = tested on: FIP1L1-PDGFRα fusion in EOL-1 cells; test: EOL-1 cell proliferation assay (resazurin); format: cell-based; conditions: Homo sapiens, EOL1; 67 h + 5 h resazurin; read-out: IC50, inhibition of proliferation of FIP1L1-PDGFRα fusion in EOL-1 cells
Experimental: as §5

[12] = tested on: FIP1L1-PDGFRα fusion in EOL-1 cells; test: EOL-1 Western blot, phospho-PDGFRα (Tyr754); format: cell-based; conditions: Homo sapiens, EOL1, 4 hours, read-out: IC50, inhibition of phosphorylation of FIP1L1-PDGFRα fusion in EOL-1 cells
Experimental: as §6

T3 sequence (P09619 with tags, fused parts or gaps N1019K): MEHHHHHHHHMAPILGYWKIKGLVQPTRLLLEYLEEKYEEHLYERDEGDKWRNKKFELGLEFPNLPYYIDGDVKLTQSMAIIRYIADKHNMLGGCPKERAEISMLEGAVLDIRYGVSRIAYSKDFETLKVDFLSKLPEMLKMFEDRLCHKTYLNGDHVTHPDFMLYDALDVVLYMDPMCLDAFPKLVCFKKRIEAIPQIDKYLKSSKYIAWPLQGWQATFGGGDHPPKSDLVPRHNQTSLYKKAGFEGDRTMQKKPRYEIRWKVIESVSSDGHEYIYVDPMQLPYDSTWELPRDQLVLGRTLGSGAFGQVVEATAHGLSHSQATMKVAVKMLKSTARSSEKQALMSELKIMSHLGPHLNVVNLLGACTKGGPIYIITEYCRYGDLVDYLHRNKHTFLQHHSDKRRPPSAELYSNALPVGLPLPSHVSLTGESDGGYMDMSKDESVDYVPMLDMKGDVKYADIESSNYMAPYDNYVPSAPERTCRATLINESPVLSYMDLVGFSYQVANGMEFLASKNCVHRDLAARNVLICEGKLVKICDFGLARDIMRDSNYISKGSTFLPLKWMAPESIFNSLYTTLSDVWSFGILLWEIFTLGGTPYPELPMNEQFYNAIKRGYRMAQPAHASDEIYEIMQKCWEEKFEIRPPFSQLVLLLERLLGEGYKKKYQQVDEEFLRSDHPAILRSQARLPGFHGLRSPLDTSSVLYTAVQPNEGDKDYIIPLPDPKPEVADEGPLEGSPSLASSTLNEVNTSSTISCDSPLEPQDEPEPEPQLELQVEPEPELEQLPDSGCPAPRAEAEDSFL
T4 sequence (P16234 24-1089 D842V): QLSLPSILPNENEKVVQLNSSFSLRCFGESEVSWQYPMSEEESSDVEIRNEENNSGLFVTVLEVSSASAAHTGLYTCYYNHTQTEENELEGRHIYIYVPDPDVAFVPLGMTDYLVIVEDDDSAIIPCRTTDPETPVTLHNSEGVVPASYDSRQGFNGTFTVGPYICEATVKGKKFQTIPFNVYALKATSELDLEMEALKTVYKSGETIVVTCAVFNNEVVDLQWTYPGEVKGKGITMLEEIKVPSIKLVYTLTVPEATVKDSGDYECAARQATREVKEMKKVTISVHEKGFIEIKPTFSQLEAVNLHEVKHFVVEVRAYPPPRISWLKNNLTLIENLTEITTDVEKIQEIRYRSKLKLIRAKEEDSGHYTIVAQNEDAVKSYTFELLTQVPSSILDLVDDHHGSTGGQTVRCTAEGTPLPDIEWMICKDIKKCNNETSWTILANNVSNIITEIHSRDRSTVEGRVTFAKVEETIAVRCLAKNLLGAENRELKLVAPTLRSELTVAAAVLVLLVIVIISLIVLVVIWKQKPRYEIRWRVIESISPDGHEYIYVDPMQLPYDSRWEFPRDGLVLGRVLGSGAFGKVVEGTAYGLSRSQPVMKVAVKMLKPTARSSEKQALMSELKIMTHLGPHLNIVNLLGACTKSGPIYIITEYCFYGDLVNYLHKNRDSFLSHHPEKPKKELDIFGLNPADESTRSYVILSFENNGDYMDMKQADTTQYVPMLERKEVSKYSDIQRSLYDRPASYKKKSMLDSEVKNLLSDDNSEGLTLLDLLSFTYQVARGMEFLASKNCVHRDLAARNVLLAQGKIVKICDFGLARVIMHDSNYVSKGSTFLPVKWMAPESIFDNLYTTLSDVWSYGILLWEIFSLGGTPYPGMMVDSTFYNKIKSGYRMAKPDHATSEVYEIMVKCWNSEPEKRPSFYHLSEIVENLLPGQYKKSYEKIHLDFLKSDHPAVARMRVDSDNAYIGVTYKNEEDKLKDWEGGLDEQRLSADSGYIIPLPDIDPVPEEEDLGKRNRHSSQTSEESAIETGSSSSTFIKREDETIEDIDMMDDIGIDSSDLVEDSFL
T2 sequence (P16234 with tags, fused parts or gaps D842V): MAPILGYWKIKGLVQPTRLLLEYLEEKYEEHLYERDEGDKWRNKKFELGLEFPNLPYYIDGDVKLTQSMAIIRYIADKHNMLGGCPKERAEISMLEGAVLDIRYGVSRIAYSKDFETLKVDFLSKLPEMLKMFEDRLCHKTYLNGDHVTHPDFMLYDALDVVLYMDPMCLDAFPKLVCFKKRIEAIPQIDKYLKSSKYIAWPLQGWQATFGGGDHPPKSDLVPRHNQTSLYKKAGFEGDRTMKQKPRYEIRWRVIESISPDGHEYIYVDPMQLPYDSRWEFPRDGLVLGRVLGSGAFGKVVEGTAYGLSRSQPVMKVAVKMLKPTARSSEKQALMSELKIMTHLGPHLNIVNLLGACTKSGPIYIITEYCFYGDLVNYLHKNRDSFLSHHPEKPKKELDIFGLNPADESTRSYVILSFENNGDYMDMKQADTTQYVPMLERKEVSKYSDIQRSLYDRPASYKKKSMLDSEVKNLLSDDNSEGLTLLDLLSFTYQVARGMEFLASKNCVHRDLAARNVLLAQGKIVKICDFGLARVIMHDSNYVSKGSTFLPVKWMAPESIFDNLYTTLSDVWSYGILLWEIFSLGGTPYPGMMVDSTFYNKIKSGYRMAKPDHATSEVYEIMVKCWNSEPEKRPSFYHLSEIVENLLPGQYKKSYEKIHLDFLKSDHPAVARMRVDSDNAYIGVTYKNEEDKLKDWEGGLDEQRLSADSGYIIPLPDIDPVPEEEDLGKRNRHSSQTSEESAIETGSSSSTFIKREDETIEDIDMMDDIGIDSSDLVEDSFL
T1 sequence (P16234 with tags, fused parts or gaps): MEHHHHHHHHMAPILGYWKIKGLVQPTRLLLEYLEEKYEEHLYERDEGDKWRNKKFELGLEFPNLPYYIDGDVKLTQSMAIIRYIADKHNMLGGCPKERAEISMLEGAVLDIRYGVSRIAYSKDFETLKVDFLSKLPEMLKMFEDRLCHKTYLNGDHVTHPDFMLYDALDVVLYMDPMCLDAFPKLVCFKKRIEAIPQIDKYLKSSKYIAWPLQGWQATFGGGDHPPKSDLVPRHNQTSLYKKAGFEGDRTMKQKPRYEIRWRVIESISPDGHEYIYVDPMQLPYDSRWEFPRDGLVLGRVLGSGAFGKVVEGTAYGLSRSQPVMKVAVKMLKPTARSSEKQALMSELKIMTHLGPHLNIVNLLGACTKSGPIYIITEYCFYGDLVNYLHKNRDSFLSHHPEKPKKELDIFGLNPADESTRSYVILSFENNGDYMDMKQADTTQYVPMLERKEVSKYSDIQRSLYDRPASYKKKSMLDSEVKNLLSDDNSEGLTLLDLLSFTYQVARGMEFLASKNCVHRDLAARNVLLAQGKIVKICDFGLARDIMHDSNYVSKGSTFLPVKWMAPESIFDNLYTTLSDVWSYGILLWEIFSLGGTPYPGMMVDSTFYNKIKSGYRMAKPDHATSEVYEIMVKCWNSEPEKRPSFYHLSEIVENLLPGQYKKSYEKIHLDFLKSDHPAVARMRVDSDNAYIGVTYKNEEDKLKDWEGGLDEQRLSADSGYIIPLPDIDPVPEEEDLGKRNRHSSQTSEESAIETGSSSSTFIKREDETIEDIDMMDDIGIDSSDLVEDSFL

With `CCn1c(=O)c(-c2cc(NC(=O)Nc3ccccc3)c(F)cc2Br)cc2cnc(NC)cc21` [Compound A, 1-[4-bromo-5-[1-ethyl-7-(methylamino)-2-oxo-1,2-dihydro-1,6-naphthyridin-3-yl]-2-fluorophenyl]-3-phenylurea] the Clinical outcome ([1]; 30 mg BID oral, cycles of 28 days) was “progressed after 2 treatment cycles”, the “Time on treatment with continued benefit” value ([1]; 100 mg BID oral, Cycle 11) was over 40 weeks and the “Tumor assessment according to RECIST 1.1” value ([1]; 100 mg BID oral, most recent assessment) was “Stable Disease”. The Tumor reduction ([1]; 150 mg QD oral) was “some tumor reduction observed”, the Time on treatment ([1]; 150 mg QD oral, Cycle 6) was over 20 weeks and the “Tumor assessment per RECIST” value ([1]; 150 mg QD oral, Cycle 6) was “stable disease”. The “PDGFRα D842V mutation allele frequency in plasma cfDNA” value ([2]; Cycle 3 Day 1 (8 weeks), not detected at baseline) was 0.59%, the “PDGFRα D842V mutation allele frequency in plasma cfDNA” value ([2]; Cycle 5 Day 1 (16 weeks) and Cycle 7 Day 1 (24 weeks)) was “undetectable” and the “Tumor response according to the RANO criteria” value ([3]; PDGFRα 6× amplified, since assessment after Cycle 12 (48 weeks)) was “Partial Response”. The “Time on study with continued benefit” value ([3]; PDGFRα amplified, cycle 19) was over 17 months, the “Frequency of double positive CTCs (PDGFRα+/GFAP+)” value (“Frequency of double positive CTCs” below) ([4]; cycle 7 (28 weeks)) was 2.22 CTCs/mL and the “Frequency of double positive CTCs” value ([4]; cycle 13 (52 weeks)) was 1.11 CTCs/mL. For the same compound, the “Frequency of double positive CTCs” value ([4]; cycle 17 (68 weeks)) was 0.58 CTCs/mL, the Cmax ([5]; oral Compound A 150 mg BID) was 1500 ng/mL and the Cmax ([5]; oral Compound A 150 mg QD) was 861 ng/mL. For the same compound, the “Compound A AUC12h (mean)” value ([5]; oral Compound A 150 mg QD) was 8,070 ng*h/mL.
`CCn1c(=O)c(-c2cc(NC(=O)Nc3ccccc3)c(F)cc2Br)cc2cnc(N)cc21` [Compound B, 1-(5-(7-amino-1-ethyl-2-oxo-1,2-dihydro-1,6-naphthyridin-3-yl)-4-bromo-2-fluorophenyl)-3-phenylurea] gave a pIC50 [6] of 8.22, a pIC50 [7] of 7.70 and a pIC50 [8] of 8.30. The pIC50 [9] was 7.38, the pIC50 [10] was 7.59 and the pIC50 [11] was 10.74. For the same compound, the pIC50 [12] was over 10.00.
